In paper PMC11910330, “Familial Alzheimer’s disease mutations in amyloid precursor protein impair calcineurin signaling to NMDA receptors” (The Journal of Biological Chemistry, 2024):
No end group written: not given here. *: point of attachment. Biotin = O=C1N[C@H]2[C@H](CS[C@H]2CCCCC(=O)*)N1

System: human recombinant GST-CaN
Assay: Peptide/CaN interaction assay (biotinylated peptides on streptavidin beads, GST-CaN pull-down, Western blot)
Format: binding
Settings: for CaN binding lower than the PVIVIT peptide / percent of CaN recovered (signal for each/signal for CaN standard * 40%) / CaN binding (in words): Fig. 1H; for percent of CaN recovered (signal for each/signal for CaN standard * 40%): 10 μg N-terminally biotinylated peptide on streptavidin beads, 200 ng GST-CaN, 30 min, 4 °C, Western blot, mean (n=7; APP-17mer n=3); for Western blot data following CaN interaction with biotinylated peptides, (signal for each/signal for CaN standard) * 40%: biotinylated APP peptides, GST-CaN pull-down; for CaN binding relative to the APP (WT) peptide (in words): Fig. 4B, FAD mutant peptides
Description: Recombinant rabbit monoclonal to APP (clone Y188; Abcam cat# ab32136; 1:5000 dilution), rabbit polyclonal to APLP1 (Proteintech cat # 12305-2-AP; 1:1000 dilution), and rabbit polyclonal to APLP2 (Proteintech cat # 15041-1-A; 1:500 dilution) were used to detect native APP family members on western blots or recombinant GFP-tagged APP family members as validation (see Fig. S1). A horseradish peroxidase (HRP)-conjugated goat anti-rabbit antibody (Sigma-Aldrich Cat# 12-348; 1:10,000 dilution) was used as secondary antibody for these western blots, while an HRP-conjugated mouse monoclonal antibody to GFP (Invitrogen cat # MA 515256HRP; 1:1000 dilution) was used to independently verify the expression of GFP or GFP-tagged APP family members. A mouse monoclonal antibody CaN (BD Biosciences Cat# 556350; 1:1000 dilution) was used for the detection of native and recombinant CaN on western blots and for co-immunoprecipitation and peptide-based interaction assays experiments, while nonspecific mouse IgG (Thermo Fisher Scientific Cat# 02-6502) was used as a control. An HRP-conjugated goat anti-mouse antibody (Sigma-Aldrich Cat# 12-349; 1:10,000 dilution) […] was used as secondary antibody for these western blots, while HRP-conjugated protein G (Sigma-Aldrich cat # 18-161; 1:5000 dilution) was used for the secondary detection of CaN in co-immunoprecipitation experiments. A mouse monoclonal anti-Flag antibody (Sigma-Aldrich Cat# F1804) was used for co-immunoprecipitations of recombinant APP family members, while an HRP-conjugated version of this antibody (Sigma-Aldrich Cat# A8592; 1:1000) was used for the detection on western blots.
The N-terminally biotinylated AKAP79(330-357) and Ht31peptides were synthesized by Biomolecules Midwest and used as positive and negative controls for CaN interaction as previously described ([20]).
Either PBS with fresh 0.1% Tween-20 and 0.1% bovine serum albumin added or a modified IP buffer (150 mM NaCl, 10 mM Hepes; 5 mM EDTA; pH 7.4) with fresh 0.5% CHAPSO and 0.1% bovine serum albumin was used for these assays. […] Streptavidin-coated dynabeads (20 μl; Invitrogen cat # 65601) were washed and then incubated with 10 μg biotinylated peptides for 15 min at 4 °C in 200 μl of buffer. Beads were washed rapidly (400 μl; 3×) to remove unbound peptide and then incubated with 200 ng human recombinant GST-CaN in 200 μl buffer for 30 min at 4 °C. Following three washes (400 μl; 5 min each), complexes were eluted in 40 μl 2× Laemmli buffer, and samples were separated by SDS-PAGE and analyzed by Western blotting as above. Blots were probed with the mouse monoclonal anti-CaN antibody followed by anti-mouse HRP for secondary detection and visualized by enhanced chemiluminescence and digitally acquired as above. For each blot, the intensity of each band was normalized to that of from the GST-CaN standard (80 ng). As this standard represented 40% of the 200 ng input, the ratio was multiplied by 40 to achieve the percent of CaN recovered.

| Substance | CaN binding lower than the PVIVIT peptide [%] | percent of CaN recovered (signal for each/signal for CaN standard * 40%) [%] | Western blot data following CaN interaction with biotinylated peptides, (signal for each/signal for CaN standard) * 40% (mean of n = 6) [%] | Western blot data following CaN interaction with biotinylated peptides, (signal for each/signal for CaN standard) * 40% (replicate 1) [%] | Western blot data following CaN interaction with biotinylated peptides, (signal for each/signal for CaN standard) * 40% (replicate 2) [%] | Western blot data following CaN interaction with biotinylated peptides, (signal for each/signal for CaN standard) * 40% (replicate 3) [%] | Western blot data following CaN interaction with biotinylated peptides, (signal for each/signal for CaN standard) * 40% (replicate 4) [%] | Western blot data following CaN interaction with biotinylated peptides, (signal for each/signal for CaN standard) * 40% (replicate 5) [%] | Western blot data following CaN interaction with biotinylated peptides, (signal for each/signal for CaN standard) * 40% (replicate 6) [%] | CaN binding (in words) | CaN binding relative to the APP (WT) peptide (in words) |
| --- | --- | --- | --- | --- | --- | --- | --- | --- | --- | --- | --- |
| MAGPHSLIVLSGPHEE [APLP1] | ~80 | 13.18 |  |  |  |  |  |  |  |  |  |
| MAGPHTMIVITGPHEE [V640M, biotinylated APP peptide incorporating the FAD mutation V640M] |  |  | 42.81 | 69.77 | 35.90 | 61.53 | 25.01 | 31.86 | 32.78 |  |  |
| GVVIATVIVITLVMLKK [APP-17mer] |  | 2.14 |  |  |  |  |  |  |  | minimal affinity for CaN |  |
| MAGPHTVIVISGPHEE [APLP2] | ~30 | 42.75 |  |  |  |  |  |  |  |  |  |
| MAGPHTVIIITGPHEE [V642I, biotinylated APP peptide incorporating the FAD mutation V642I] |  |  | 44.18 | 54.96 | 45.24 | 82.71 | 28.44 | 26.76 | 26.97 |  |  |
| MAGPHIVIVITGPHEE [T639I, biotinylated APP peptide incorporating the FAD mutation T639I] |  |  | 54.45 | 94.68 | 40.64 | 44.78 | 37.21 | 55.66 | 53.70 |  |  |
| MAGPHTVIVIPGPHEE [T644P, biotinylated APP peptide incorporating the FAD mutation T644P] |  |  | 4.71 | 0.13 | 8.45 | 2.14 | 4.28 | 3.74 | 9.51 |  | reliably reduced CaN binding |
| AKAP79: N-terminally biotinylated peptide derived from the AKAP79 CaN-binding domain, positive control (Biotin-EESKRMEPIAIIITDTEISEFDVTKSKN) [reference compound] |  | 21.96 |  |  |  |  |  |  |  |  |  |
| MAGPHTVIVITGPHEE [APP] |  | 52.92 |  |  |  |  |  |  |  | nearly the same extent as the PVIVIT peptide |  |
| MAGPHTVFVITGPHEE [I641F, biotinylated APP peptide incorporating the FAD mutation I641F] |  |  | 22.96 | 23.46 | 18.34 | 34.56 | 13.72 | 12.91 | 34.77 |  | reduced substantially |
| MAGPHTVIFITGPHEE [V642F, biotinylated APP peptide incorporating the FAD mutation V642F] |  |  | 43.86 | 84.45 | 46.13 | 42.80 | 26.46 | 29.11 | 34.24 |  |  |
